The results in this text go back to US20250098692A1, “GERMINATION/SPROUTING AND FRUIT RIPENING REGULATORS” (The United States of America, as Represented by the …, priority 2021, published 2025).

Test [1] has as its system strawberry fruit. The experiment in a line: PAD analogs: ability to delay strawberry fruit ripening. Particulars: for effect on strawberry fruit ripening: 50 μM in 0.1% TRITON-X 100. Type of test: in vivo. The method, then:
Chemicals with similarity to PAD were tested for their ability to delay fruit ripening.
To the inventors' knowledge, no chemical closely-related to PAD is currently commercially available. A few analogs with 88-99% similarity to PAD were found in the ChemBridge database used in Example 1.

In test [2] the test system is strawberry fruit. The experiment in a line: Strawberry fruit ripening after dipping fruits on the plant. The note with it: for strawberry appearance (FIG. 2B): 8 DAT; for strawberry appearance (FIG. 2B) / strawberry appearance (FIG. 2C) / strawberry appearance (FIG. 2D) / strawberry appearance (FIG. 2E) / strawberry appearance (FIG. 2F) / fruit started to turn red: 10 μM PAD or 1 mM ABA; for strawberry appearance (FIG. 2C): 9 DAT; for strawberry appearance (FIG. 2D): 10 DAT; for strawberry appearance (FIG. 2E): 11 DAT; for strawberry appearance (FIG. 2F): 12 DAT; for effect on strawberry fruit ripening compared to mock-treated fruit: dipped 20 seconds eight days after pollination, 10 μM PAD or 1 mM ABA in 0.1% TRITON X-100. It is filed as in vivo, Fragaria x ananassa CV. Albion. The method, then:
Strawberry plants (Fragaria x ananassa CV. Albion) were grown in a greenhouse at 28° C. and 14-hour light/10-hour dark conditions. Eight days after pollination, fruits were dipped for 20 seconds in 10 µM PAD in 0.1% TRITON X-100 surfactant; 1 mM ABA in 0.1% TRITON X-100 surfactant; or buffer alone (0.1% Triton X-100). Fruits were allowed to continue growing on the plants. FIG. 1 depicts images of strawberry fruit development under standard conditions.
Of the twelve chemicals identified in Example 1 as promoting seed germination, N-[3-chloro-4-(4-propionyl-1-piperazinyl)phenyl]-2-phenylacetamide was named “PAD,” and used for further study. […] Mock-treated fruit started to turn red at 10 DAT, and reached full red at 12 DAT. ABA-treated fruit started to turn red 9 DAT, and reached full red 11 DAT. In contrast, PAD-treated fruit only started turning red 12 DAT.

For test [3], the system named is strawberry fruit. The description is as above. Type of test: in vivo, Fragaria x ananassa CV. Albion. The note with it: 10 μM PAD applied on day 9 after pollination.
For test [4], the system named is strawberry fruit. The experiment in a line: Strawberry fruit ripening after injection of fruits. Type of test: in vivo, Fragaria x ananassa CV. Albion. Particulars: for strawberry appearance (FIG. 4A): 8 DAT; for strawberry appearance (FIG. 4A) / strawberry appearance (FIG. 4B) / strawberry appearance (FIG. 4C) / strawberry appearance (FIG. 4D) / strawberry appearance (FIG. 4E) / fruit started to turn red: 10 µM PAD or 200 μM ABA; for strawberry appearance (FIG. 4B): 9 DAT; for strawberry appearance (FIG. 4C): 10 DAT; for strawberry appearance (FIG. 4D): 11 DAT; for strawberry appearance (FIG. 4E): 12 DAT. On the procedure: Strawberry plants (Fragaria x ananassa CV. Albion) were grown and maintained as disclosed above. Fourteen days after pollination fruits were injected with 10 µM PAD in 0.1% TRITON X-100 surfactant; 200 μM ABA in 0.1% TRITON X-100 surfactant; or buffer alone (0.1% Triton X-100 surfactant).
FIG. 4A to FIG. 4F depict images of strawberries treated with either 10 µM PAD in 0.1% TRITON X-100 surfactant; 200 μM ABA in 0.1% TRITON X-100 surfactant; buffer alone ([…] surfactant; mock-treated); or not injected (control). […] Control fruit started to turn red 11 DAT, and reached full red at 12 DAT. Mock-treated fruit started to turn red at 10 DAT, and reached full red at 12 DAT. ABA-treated fruit started to turn red 9 DAT, and reached full red 11 DAT. In contrast, PAD-treated fruit only started turning red 12 DAT.

The subject of test [5] is Strawberry seeds (Fragaria x ananassa CV. Albion). The test is described as follows: Chemical library screening for promotion of strawberry seed germination. It is filed as in vivo. The note with it: about 5 μM chemical in 0.1% TRITON X-100, 96 well plates, 25 C. An excerpt:
Chemical libraries of small compounds were screened for compounds capable of promoting seed germination, delaying the fruit ripening process, and/or retarding fruit pigmentation. A chemical library containing 10,000 small compounds (˜300 Dalton) was purchased from ChemBridge Co (San Diego, California, USA). Strawberry seeds (Fragaria x ananassa CV. Albion) were purchased from Johnny's Seeds (Fairfield, Maine, USA). Five to six seeds were sterilized with 70% ethanol and added to each well of 96 well ELISA plates containing about 5 μM chemical in 0.1% TRITON X-100 surfactant (polyethylene glycol tert-octylphenyl ether). One mM abscisic acid (ABA), a hormone that inhibits seed germination, and gibberellic acid (GA3), a hormone that promotes seed germination, were used as controls. Each experiment was conducted in triplicate. Plates were kept in a growth chamber at 25 C under dark, and a 14 hour light/10 hour dark cycle was added after seed germination was observed.

Test [6] concerns Cherry tomato fruits. The experiment in a line: Cherry tomato ripening after injection at mature green stage. The note with it: for cherry tomato appearance (FIG. 3B, FIG. 3D): 6 DAT, injected 10 µM PAD or 200 μM ABA (figure legend); for ripening stage of cherry tomato fruits: six days after treatment, injected 50 μM PAD or 200 μM ABA. Type of test: in vivo. The method, then: Cherry tomato fruits at mature green stage were purchased from Butler's Orchard (Germantown, Maryland, USA). […] FIG. 3A and FIG. 3B show images of cherry tomatoes injected with 50 µM PAD. FIG. 3C and FIG. 3D show images of cherry tomatoes injected with 200 μM ABA. FIG. 3E and FIG. 3F show images of cherry tomatoes injected with buffer alone. FIG. 3G and FIG. 3H show images of untreated tomatoes. FIG. 3A; FIG. 3C; FIG. 3E; and FIG. 3G show images taken the day of treatment. FIG. 3B; FIG. 3D; […]; and FIG. 3H show images taken 6 DAT.

On to `CC(C)C(=O)N1CCN(c2ccc(NC(=O)C(c3ccccc3)c3ccccc3)cc2Cl)CC1` [N-(3-chloro-4-(4-isobutyryl-1-piperazinyl)phenyl]-2,2-diphenylacetamide], for which the “effect on strawberry fruit ripening” value in test [1] is “no obvious effect”.

On to `CC(C)C(=O)N1CCN(c2ccc(NC(=O)Cc3ccc(Cl)cc3)cc2)CC1` [2-(4-chlorophenyl)-N-[4-(4-isobutyryl-1-piperazinyl)phenyl]acetamide], for which the “effect on strawberry fruit ripening” value in test [1] is listed as “no obvious effect”.

Regarding `CCC(=O)N1CCN(c2ccc(NC(=O)Cc3ccccc3)cc2Cl)CC1` [PAD, N-[3-chloro-4-(4-propionyl-1-piperazinyl)phenyl]-2-phenylacetamide], in test [2] (dipped), the “strawberry appearance (FIG. 2B)” value is “white with a greenish tint”, the “strawberry appearance (FIG. 2C)” value is “whit with a greenish tint”, the “strawberry appearance (FIG. 2D)” value was “white with a greenish tint” and the “strawberry appearance (FIG. 2E)” value is reported as “white”. Moreover, the “strawberry appearance (FIG. 2F)” value in test [2] (dipped) is “red with some yellow”. Besides, in test [2] (PAD-treated vs mock-treated), the “fresh weight of strawberry fruit larger than mock-treated” value is on record as “about 10%” and the “sugar content versus mock-treated controls” value is “no difference in the sugar content”. For the same molecule, the “effect on strawberry fruit ripening compared to mock-treated fruit” value in test [2] is reported as “delayed fruit ripening”. Also, in test [2] (dipped, days after treatment), the “fruit started to turn red” value was 12 DAT. For the same molecule, the “delay of strawberry fruit ripening compared with mock-treated” value in test [3] is listed as “about 2 days”. Further, in test [4] (injected), the “strawberry appearance (FIG. 4A)” value was “with pink spots”, the “strawberry appearance (FIG. 4B)” value is given as “orange”, the “strawberry appearance (FIG. 4C)” value is reported as “mostly red” and the “strawberry appearance (FIG. 4D)” value is listed as “mostly red”. Moreover, the “strawberry appearance (FIG. 4E)” value in test [4] (injected) is “red”. In addition, the “effect on strawberry fruit ripening compared to not-treated, mock-treated and ABA treated fruit” value in test [4] (injected fourteen days after pollination, 10 µM PAD) is “delayed fruit ripening”. For the same molecule, in test [4] (injected, days after treatment), the “fruit started to turn red” value is 12 DAT. Also, the promoting seed germination result in test [5] is on record as “promoted seed germination”. In test [6], the “cherry tomato appearance (FIG. 3B, FIG. 3D)” value was “with a yellow and/or yellow/red tint” and the “ripening stage of cherry tomato fruits” value is “still at a green stage”. Further, the “effect on cherry tomato ripening compared to mock-treated or untreated” value in test [6] (injected 50 μM PAD) is recorded as “delay in cherry tomato ripening”. For the same molecule, the “delay in cherry tomato fruit ripening” value in test [6] (mature green stage, 50 μM PAD) is recorded as “about a seven-day delay”.

Take `CC1=CC(=O)CC(C)(C)[C@@]1(O)/C=C/C(C)=C\C(=O)O` [ABA, abscisic acid, reference compound]: in test [2] (dipped), the “strawberry appearance (FIG. 2B)” value was “white”, the “strawberry appearance (FIG. 2C)” value is on record as “with pink spots”, the “strawberry appearance (FIG. 2D)” value is given as “mostly red” and the “strawberry appearance (FIG. 2E)” value is “red”. Besides, the “strawberry appearance (FIG. 2F)” value in test [2] (dipped) is recorded as “red”. Also, the “effect on strawberry fruit ripening compared to mock-treated fruit” value in test [2] is “stimulated strawberry fruit ripening”. In addition, the “fruit started to turn red” value in test [2] (dipped, days after treatment) is given as 9 DAT. Also, in test [2] (dipped, 1 mM ABA, days after treatment), the “fruit reached full red” value came to 11 DAT. Moreover, in test [4] (injected), the “strawberry appearance (FIG. 4A)” value was “with pink spots”, the “strawberry appearance (FIG. 4B)” value was “mostly red”, the “strawberry appearance (FIG. 4C)” value is on record as “mostly red” and the “strawberry appearance (FIG. 4D)” value is recorded as “mostly red”. Also, the “strawberry appearance (FIG. 4E)” value in test [4] (injected) was “red”. The “fruit started to turn red” value in test [4] (injected, days after treatment) is on record as 9 DAT. Besides, the “fruit reached full red” value in test [4] (injected, 200 μM ABA, days after treatment) was 11 DAT. Besides, in test [6], the “cherry tomato appearance (FIG. 3B, FIG. 3D)” value was “red” and the “ripening stage of cherry tomato fruits” value is reported as “fully ripen (red stage)”.

As to `CC(C)(C)C(=O)N1CCN(c2ccc(NC(=O)Cc3ccccc3)cc2Cl)CC1` [N-(3-chloro-4-[4-(2,2-dimethylpropanoyl)-1-piperazinyl]phenyl)-2-phenylacetamide], the “effect on strawberry fruit ripening” value in test [1] was “delayed strawberry fruit ripening”. The “effectiveness in delaying strawberry fruit ripening relative to PAD” value in test [1] (50 μM in 0.1% TRITON-X 100, same timing as PAD) is recorded as “much less effectively than PAD”.
